Earlier results on 1 compound are cited in PMC13112601 (International journal of biological macromolecules, 2026).

The target in one data set is T1, ERRα (Homo sapiens, UniProt P11474).
T1 construct: Full-length ERRα (A) and ERRγ (B) transfection assay results in HEK293 cells; host or cells: HEK293
T1 sequence (P11474 1-423): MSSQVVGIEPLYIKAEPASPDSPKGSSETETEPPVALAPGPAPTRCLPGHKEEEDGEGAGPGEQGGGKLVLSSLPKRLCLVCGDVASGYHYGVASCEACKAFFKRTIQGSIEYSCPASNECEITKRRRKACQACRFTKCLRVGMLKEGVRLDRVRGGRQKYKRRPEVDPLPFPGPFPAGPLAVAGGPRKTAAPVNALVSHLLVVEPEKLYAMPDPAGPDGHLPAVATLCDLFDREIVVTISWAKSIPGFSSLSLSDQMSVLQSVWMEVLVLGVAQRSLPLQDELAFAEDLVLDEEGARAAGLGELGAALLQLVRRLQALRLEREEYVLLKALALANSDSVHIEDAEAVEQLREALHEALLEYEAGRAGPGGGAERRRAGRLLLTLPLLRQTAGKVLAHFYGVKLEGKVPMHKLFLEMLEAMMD
The following applies: previously reported.

For a further data set, the target named is T2, ERRγ (Homo sapiens, UniProt P62508).
T2 construct: Full-length ERRα (A) and ERRγ (B) transfection assay results in HEK293 cells; host or cells: HEK293
T2 sequence (P62508 1-458): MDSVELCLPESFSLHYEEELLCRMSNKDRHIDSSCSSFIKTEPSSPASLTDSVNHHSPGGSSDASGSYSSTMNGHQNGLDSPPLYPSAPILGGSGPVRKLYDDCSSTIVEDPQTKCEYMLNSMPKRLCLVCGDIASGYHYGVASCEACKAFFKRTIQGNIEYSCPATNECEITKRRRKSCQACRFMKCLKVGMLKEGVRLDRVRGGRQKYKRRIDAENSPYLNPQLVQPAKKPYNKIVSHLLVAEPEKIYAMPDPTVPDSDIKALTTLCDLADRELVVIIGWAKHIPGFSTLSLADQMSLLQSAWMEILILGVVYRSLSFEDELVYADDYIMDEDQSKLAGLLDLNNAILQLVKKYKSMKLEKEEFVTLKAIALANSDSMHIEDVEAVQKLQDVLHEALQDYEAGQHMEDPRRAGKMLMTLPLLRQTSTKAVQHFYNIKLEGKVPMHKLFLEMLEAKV
The following applies: previously reported.

Usually EC50 stands for the concentration at which the effect is half-maximal. For `Cc1ccc(C(=O)N/N=C/c2ccccc2)cc1` [BE5082, (E)-N′-Benzylidene-4-methylbenzohydrazide], the EC50 at ERRα was 209 nM; on ERRγ, 194 nM.
